According to patent publication US11045452B2, “Composition for preventing or treating cancer comprising a vascular disrupting agent and immune checkpoint inhibitor” (CHONG KUN DANG PHARMACEUTICAL CORP., priority 2017, dated 2021):

How the values were obtained:
[1] = tested on: mouse bone marrow-derived dendritic cells (BM-DC); assay: Measurement of cytokines produced by dendritic cells (immunoassay kit); type: cell-based; settings: 24 hours, cell culture medium, all groups administered, FIG. 4
Procedure: (§1) Mouse bone marrow-derived dendritic cells (BM-DC) were obtained from a femur of BALB/c or C57BL/6 mouse. The cells were kept with Dulbecco's modified Eagle medium (DMEM) containing 40 ng/mL of rmGM-CSF (JW Creagene, Sungnam, Korea) and 20 ng/mL of rmIL-4 (JW CreaGene), and containing 10% heat-inactivated FBS (Hyclone), 100 U/ml of penicillin, 100 μg/ml of streptomycin (Hyclone) and 50 μM of 2-mercaptoethanol (Sigma-Aldrich, Inc., St. Louis, Mo., USA).
(§2) A compound of a Formula 2 (Compound 2), which was an active metabolite of the compound of the Formula 1, was dissolved in DMSO, and diluted with a medium of the mouse bone marrow-derived dendritic cells so as to prepare active compound.
To identify a change in secretion of cytokines, the mouse bone marrow-derived dendritic cells were treated with the compound of the Formula 2 for 24 hours, and then the cytokines were measured by using a cell culture medium. An immunoassay kit (R&D system) was used for measuring cytokines, and thus IL-1β, IL-6 and IL-12 were measured.
(§3) A statistical significance between a control group and a treated group was verified by using student t-test.

[2] = tested on: mouse bone marrow-derived dendritic cells (BM-DC); assay: Identification of phenotype of dendritic cells (flow cytometry of cell surface markers); type: cell-based; settings: 24 hours
Procedure: as §1, §2
To identify a phenotype of dendritic cells, the mouse bone marrow-derived dendritic cells were treated with the compound of the Formula 2 for 24 hours, and then were dyed with an antibody (antibody to anti-mouse CD80, anti-mouse CD86 or anti-mouse MHC II) to a cell surface marker of the mouse bone marrow-derived dendritic cells as well as an isotype control antibody. Flow cytometry was performed by using FACS Canto II flow cytometer (Becton Dickinson).
as §3

[3] = tested on: mouse bone marrow-derived dendritic cells (BM-DC); assay: Measurement of phagocytosis of dendritic cells (FITC OVA-microsphere, flow cytometer); type: cell-based; settings: 100 nM, 18 hours, then FITC OVA-microsphere 2 hours, FIG. 5
Procedure: as §1, §2
To identify phagocytosis of dendritic cells, the mouse bone marrow-derived dendritic cells (2×10^6/well) were treated with 100 nM of the compound of the Formula 2 for 18 hours, and then added with OVA-microsphere containing ovalbumin tagged with fluorescein isothiocyanate (FITC), so as to be cultured for 2 hours. Completely cultured cells were washed with PBS, and then the cells were collected, fixed with paraformaldehyde, and analyzed with a flow cytometer.
as §3

[4] = tested on: MC38, a mouse colorectal cancer cell line; assay: MC38 cancer animal model, Formula 1 with anti-PD-1 / anti-CTLA-4 antibody (Example 2); type: in vivo, C57BL/6 mouse
Procedure: (§4) MC38 (8×10^4 cell), a mouse colorectal cancer cell line, was subcutaneously transplanted to a C57BL/6 mouse. When a size of cancer reaches 40-60 mm^3, a vehicle or 5 mg/kg of the compound of the Formula 1 was intraperitoneally injected into the mouse twice a week. Also, 1 ug/uL (200 ug/200 uL/mouse) of an anti-PD-1 antibody, an anti-CTLA-4 antibody or both thereof (purchased from BioXCell) was intraperitoneally injected into the mouse twice a week, in one day after administering a vehicle or the compound of the Formula 1. A size of cancer and a weight were measured twice a week.

[5] = tested on: MC38, a mouse colorectal cancer cell line; assay: MC38 cancer animal model, Formula 1 with anti-PD-L1 antibody (Example 3); type: in vivo, C57BL/6 mouse; settings: FIG. 7
Procedure: as §4, with “anti-PD-L1” for “anti-PD-1 antibody, an anti-CTLA-4”, “antibody” for “antibody or both thereof (purchased from BioXCell)”

Row | Compound | IL-1β secretion [1] | IL-6 secretion [1] | IL-12 secretion [1] | MHC II (phenotype of mature dendritic cells) expression ([2]; 100 nM, FIG. 3) | CD80 (mature dendritic cell marker) expression ([2]; 0.01, 0.1 and 1 μM, FIG. 1) | CD86 (mature dendritic cell marker) expression ([2]; 0.01, 0.1 and 1 μM, FIG. 2) | phagocytosis of dendritic cells (fluorescence intensity) [3] | therapeutic potential in combination with the anti-CTLA-4 antibody ([4]; Formula 1 5 mg/kg i.p. + anti-CTLA-4 antibody 200 ug/mouse i.p., twice a week, FIG. 6) | therapeutic potential in combination with the anti-PD-1 antibody ([4]; Formula 1 5 mg/kg i.p. + anti-PD-1 antibody 200 ug/mouse i.p., twice a week, FIG. 6) | experimental animals in which cancer was completely eradicated ([4]; Formula 1 5 mg/kg i.p. + anti-PD-1 antibody and anti-CTLA-4 antibody, twice a week) | anti-cancer effect in combination with the anti-PD-1 antibody and the anti-CTLA-4 antibody ([4]; Formula 1 5 mg/kg i.p. + both antibodies i.p., twice a week, FIG. 6) | growth of cancer ([4]; single administration, Formula 1 5 mg/kg i.p. twice a week, antibody 200 ug/mouse i.p. twice a week, FIG. 6) | therapeutic potential in combination with the anti-PD-L1 antibody ([5]; Formula 1 5 mg/kg i.p. + anti-PD-L1 antibody 200 ug/mouse i.p., twice a week) | growth of cancer ([5]; single administration, Formula 1 5 mg/kg i.p. twice a week, antibody 200 ug/mouse i.p. twice a week)
1 | COc1cc(C(=O)c2ccc(-c3csc(N)n3)cc2-n2cncn2)cc(OC)c1OC [Formula 2, (4-(2-aminothiazole-4-yl)-2-(1H-1,2,4-triazole-1-yl)phenyl)(3,4,5-trimethoxyphenyl)methanone] | increased | increased | increased | increased | increased | increased | increased |  |  |  |  |  |  | 
2 | COc1cc(C(=O)c2ccc(-c3csc(NC(=O)[C@@H](N)C(C)C)n3)cc2-n2cncn2)cc(OC)c1OC [Formula 1, (S)—N-(4-(3-(1H-1,2,4-triazole-1-yl)-4-(3,4,5-trimethoxybenzoyl)phenyl)thiazole-2-yl)-2-amino-3-methylbutanamide] |  |  |  |  |  |  |  | very high therapeutic potential with a synergy effect | very high therapeutic potential with a synergy effect | two of ten | most increased | remarkably inhibited | very high therapeutic potential with a synergy effect | remarkably inhibited
